In ChEMBL document CHEMBL1122390, “2-benzazepines. 5. Synthesis of pyrimido[5,4-d][2]benzazepines and their evaluation as anxiolytic agents” (J Med Chem, 1983):

What was measured:
Mus musculus [1] = experiment: Effective dose required for anxiolytic activity in mice when administered perorally (Rotarod test); assay type: functional; conditions: po
Mus musculus [2] = experiment: Effective dose required for anxiolytic activity in mice when administered perorally (Antipentylene tetrazole test); assay type: functional; conditions: po
Mus musculus [3] = experiment: Effective dose required for anxiolytic activity in mice when administered perorally (Inclined screen test); assay type: functional; conditions: po
[4] = target: GABA-A receptor; anion channel; experiment: Binding affinity measured by [3H]diazepam binding assay in rat
Mus musculus [5] = experiment: (§1) Effective dose required for ethanol interaction in mouse when administered perorally; assay type: functional; conditions: po
Monkey [6] = experiment: Minimum effective dose required for anticonflict effect in monkey when administered perorally; assay type: functional; conditions: Cercopithecidae, in Primates, po; read-out: MED
Rattus norvegicus [7] = experiment: Lowest dose required for depressant effect (significant decrease in unpunished responding) in rat when administered perorally; assay type: functional
Felis catus [8] = experiment: Minimum effective dose required for drug induced ataxia (observable symptomatology) in cat when administered perorally.; assay type: functional; conditions: po, read-out: MED
Monkey [9] = experiment: Highest dose required for depressant effect when administered perorally; assay type: functional, Cercopithecidae
Rattus norvegicus [10] = experiment: Minimum effective dose required for anticonflict effect in rat when administered perorally; assay type: functional; conditions: po, read-out: MED
Mus musculus [11] = experiment: Effective dose required for anxiolytic activity in mice when administered perorally ( Rotarod test); assay type: functional; conditions: po
Felis catus [12] = experiment: Minimum effective dose required for drug induced ataxia (observable symptomatology) in cat when administered perorally; assay type: functional; conditions: po, read-out: MED
Mus musculus [13] = experiment: as §1; conditions: po

SMILES	ED50 (Mus musculus [1])	ED50 (Mus musculus [2])	ED50 (Mus musculus [3])	IC50 [4]	other results
Cc1ncc2c(n1)-c1ccc(Cl)cc1C(c1ccccc1Cl)=[N+]([O-])C2	6.3 mg/kg	0.72 mg/kg	> 400 mg/kg	15 nM	–
Nc1ncc2c(n1)-c1ccccc1C(c1ccccc1)=NC2	–	17 mg/kg	–	60 nM	–
Cc1ncc2c(n1)-c1ccc(Cl)cc1C(c1ccccc1Cl)N(C)C2 (stereo not drawn)	74 mg/kg	7.7 mg/kg	> 400 mg/kg	25 nM	–
Nc1ncc2c(n1)-c1ccc(Cl)cc1C(c1ccccc1Cl)=NC2	1.4 mg/kg	0.07 mg/kg	> 400 mg/kg	2.6 nM	–
Fc1ccccc1C1=NCc2cnc(Cl)nc2-c2ccc(Cl)cc21	24 mg/kg	4.7 mg/kg	> 400 mg/kg	5.3 nM	–
CC1=NCC2CNC(c3ccccc3Cl)c3cc(Cl)ccc3C2=N1 (stereo not drawn)	109 mg/kg	34 mg/kg	200 mg/kg	140 nM	–
CNC(=O)Cc1ncc2c(n1)-c1ccc(Cl)cc1C(c1ccccc1F)=NC2	4 mg/kg	2.3 mg/kg	> 400 mg/kg	7.6 nM	–
[O-][N+]1=C(c2ccccc2F)c2cc(Cl)ccc2-c2nc(S)ncc2C1	> 200 mg/kg	> 100 mg/kg	> 400 mg/kg	490 nM	–
Cc1nc2c(c[n+]1[O-])C[N+]([O-])=C(c1ccccc1Cl)c1cc(Cl)ccc1-2	5.6 mg/kg	2.7 mg/kg	240 mg/kg	31 nM	–
Cc1ncc2c(n1)-c1ccc(Cl)cc1C(c1ccccc1Cl)NC2 (stereo not drawn)	18 mg/kg	2.3 mg/kg	> 400 mg/kg	30 nM	–
[O-][N+]1=C(c2ccccc2Cl)c2cc(Cl)ccc2-c2ncncc2C1	4.9 mg/kg	0.87 mg/kg	141 mg/kg	39 nM	–
CNc1ncc2c(n1)-c1ccc(Cl)cc1C(c1ccccc1F)=NC2	4 mg/kg	0.58 mg/kg	> 400 mg/kg	2.8 nM	–
Cc1ncc2c(n1)-c1ccccc1C(c1ccccc1)=NC2	200 mg/kg	84 mg/kg	–	54 nM	–
Nc1ncc2c(n1)-c1ccc(Cl)cc1C(c1ccccc1F)=[N+]([O-])C2	–	–	–	38 nM	–
Fc1ccccc1C1=NCc2cncnc2-c2ccc(Cl)cc21	0.8 mg/kg	0.37 mg/kg	> 400 mg/kg	3.4 nM	–
CN1CCN(c2ncc3c(n2)-c2ccc(Cl)cc2C(c2ccccc2F)=NC3)CC1	16 mg/kg	1.2 mg/kg	> 400 mg/kg	7.1 nM	–
CN(C)CCCNc1ncc2c(n1)-c1ccc(Cl)cc1C(c1ccccc1F)=NC2	16 mg/kg	1.6 mg/kg	187 mg/kg	2.3 nM	–

SMILES	ED50 (Mus musculus [1])	ED50 (Mus musculus [2])	ED50 (Mus musculus [3])	IC50 [4]	other results
CSc1ncc2c(n1)-c1ccc(Cl)cc1C(c1ccccc1Cl)=NC2	33 mg/kg	13 mg/kg	> 400 mg/kg	18.5 nM	–
Clc1ccc2c(c1)C(c1ccccc1Cl)NCc1cncnc1-2 (stereo not drawn)	22 mg/kg	6.9 mg/kg	> 400 mg/kg	54 nM	–
Cc1ncc2c(n1)-c1ccc(Cl)cc1C(c1ccccc1F)=NC2	7.8 mg/kg	6.6 mg/kg	> 400 mg/kg	3.1 nM	–
Cc1ncc2c(n1)-c1ccc(Cl)cc1C(c1ccccc1)=NC2	–	9.3 mg/kg	–	17 nM	–
Clc1ccc2c(c1)C(c1ccccc1Cl)=NCc1cncnc1-2	3.6 mg/kg	0.59 mg/kg	215 mg/kg	2.8 nM	ED50 (Mus musculus [5]): 2.2 mg/kg; minimal effective dose (Monkey [6]): 0.04 mg/kg; DUR (Rattus norvegicus [7]): 2.5 mg/kg; minimal effective dose (Felis catus [8]): 0.5 mg/kg; HED (Monkey [9]): 5 mg/kg; minimal effective dose (Rattus norvegicus [10]): 0.31 mg/kg
COc1ncc2c(n1)-c1ccc(Cl)cc1C(c1ccccc1F)=NC2	9 mg/kg	2.6 mg/kg	> 400 mg/kg	3.5 nM	–
[O-][N+]1=C(c2ccccc2F)c2cc(Cl)ccc2-c2ncncc2C1	3.95 mg/kg	3.9 mg/kg	277 mg/kg	41 nM	–
Nc1ncc2c(n1)-c1ccc(Cl)cc1C(c1ccccc1F)=NC2	5.1 mg/kg	1.1 mg/kg	> 400 mg/kg	2.8 nM	–
Oc1ncc2c(n1)-c1ccc(Cl)cc1C(c1ccccc1F)=NC2	29 mg/kg	6.3 mg/kg	> 400 mg/kg	9.6 nM	–
Sc1ncc2c(n1)-c1ccc(Cl)cc1C(c1ccccc1Cl)=NC2	214 mg/kg	18 mg/kg	> 400 mg/kg	270 nM	–
O=C(O)Cc1ncc2c(n1)-c1ccc(Cl)cc1C(c1ccccc1F)=NC2	–	12 mg/kg	> 400 mg/kg	9.6 nM	ED50 (Mus musculus [11]): 30 mg/kg
CC(C)c1ncc2c(n1)-c1ccc(Cl)cc1C(c1ccccc1Cl)=NC2	21 mg/kg	3.8 mg/kg	> 400 mg/kg	25 nM	–
Nc1ncc2c(n1)-c1ccc(Cl)cc1C(c1ccccc1)=NC2	19 mg/kg	4.9 mg/kg	> 400 mg/kg	17 nM	–
Cc1ncc2c(n1)-c1ccc(Cl)cc1C(c1ccccc1Cl)=NC2	7.2 mg/kg	0.74 mg/kg	> 400 mg/kg	9.2 nM	–
CCOC(=O)Cc1ncc2c(n1)-c1ccc(Cl)cc1C(c1ccccc1F)=NC2	> 200 mg/kg	13 mg/kg	–	20 nM	–
CN(C)c1ncc2c(n1)-c1ccc(Cl)cc1C(c1ccccc1F)=NC2	2.2 mg/kg	1.1 mg/kg	> 400 mg/kg	8.2 nM	–
CN1C(=O)CN=C(c2ccccc2)c2cc(Cl)ccc21 [DIAZEPAM]	3.2 mg/kg	1.4 mg/kg	> 25 mg/kg	–	minimal effective dose (Monkey [6]): 0.31 mg/kg; DUR (Rattus norvegicus [7]): 20 mg/kg; minimal effective dose (Felis catus [12]): 0.2 mg/kg; HED (Monkey [9]): 20 mg/kg; ED50 (Mus musculus [13]): 0.97 mg/kg; minimal effective dose (Rattus norvegicus [10]): 1.25 mg/kg
